According to PubChem BioAssay (NCI):
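Assay format: 96-well plates, 48-hour exposure. Definition used: TGI = concentration required for complete inhibition of growth.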

Assays:
Test in all cases: NCI tumour cell line growth inhibition, 48 h
M19-MEL melanoma = test system: M19-MEL melanoma
LXFL 529 NSCLC = test system: LXFL 529 NSCLC
RXF-631 renal = test system: RXF-631 renal
P388 leukemia = test system: P388 leukemia
P388/ADR leukemia = test system: P388/ADR leukemia
SN12K1 renal = test system: SN12K1 renal

SMILES	TGI (M19-MEL melanoma) [µM]	TGI (LXFL 529 NSCLC) [µM]	also measured
O=C1CCN(CCC(F)(F)C(F)(F)C(F)(F)C(F)(F)F)C(=S)N1	> 100	> 100	–
COc1cc(/C=C(\C)c2ccc3c(c2)OCO3)cc(OC)c1OC	> 100	96	TGI (RXF-631 renal): > 100 µM
CCOC(=O)C(CC(C)C)NC(=O)C(N)Cc1ccc(N(CCCl)CCCl)cc1 (configuration not stated)	4.57	8.29	–
CCC1CN2CCc3cc(OC)c(OC)cc3C2CC1CC1c2cc(OC)c(OC)cc2CCN1C(=O)C(Cc1c[nH]c2ccccc12)NC(=O)OC(C)(C)C (configuration not stated)	3.11	10.8	–
COc1ccc(-c2cc(=O)c3cc4c(cc3[nH]2)OCO4)c(OC)c1	> 100	> 100	–
NC(=S)N/N=C/c1cn(CCCl)c2ccccc12	> 100	> 100	–
ClCc1nnc2n1-c1ccc(Cl)cc1SC2	10.4	–	TGI (P388 leukemia): 4.24 µM; TGI (P388/ADR leukemia): > 25.2 µM; TGI (SN12K1 renal): 7.86 µM
CN1C[C@@H]2CC(=O)CC[C@@H]2C[C@H]1C#N	–	> 100	TGI (RXF-631 renal): > 100 µM
Cc1ccc2[nH]c3c(C)c4cc[n+](C)cc4c(C)c3c2c1	–	5.01	–
Cc1cc2c(=O)c3ccc(Cl)cc3[nH]c2c(C(=O)O)c1C	> 100	> 100	–
Nc1ccc(N=Nc2ccc(-c3ccc(N=Nc4c(S(=O)(=O)O)cc5cc(S(=O)(=O)O)c(N=Nc6ccc([N+](=O)[O-])cc6)c(N)c5c4O)cc3)cc2)c2cc(S(=O)(=O)O)ccc12	> 100	> 100	–
Nc1c2ccccc2nc2nccnc12	> 100	–	–
CC12CCC3C(CCC4(O)C=CCCC34C=O)C1(O)CC(O)C2c1ccc(=O)oc1 (configuration not stated)	0.264	–	TGI (P388 leukemia): 500 µM; TGI (P388/ADR leukemia): > 500 µM; TGI (SN12K1 renal): 0.108 µM
CNc1cccc(-c2cc(=O)c3cc4c(cc3[nH]2)OCO4)c1	> 100	> 100	–
CCNc1nc2c(=O)n(C)c(=O)n(C)c2s1	> 100	> 100	–
Cc1ccc(NCCO)cc1	–	> 100	–
COc1ccc(/C=C2\C(=O)Nc3ccccc32)cc1OC	–	> 100	–
N#CC(NNC(=O)Cc1ccccc1)c1ccc(O)cc1 (configuration not stated)	> 100	> 100	–
